Laboratory results: publication PMC11879040, “Advancing systemic toxicity risk assessment: Evaluation of a NAM-based toolbox approach” (Toxicological Sciences, 2024)
Where two headings read alike, the source gives them in different places.

How the values were obtained:
[1] = biological target: 5-hydroxytryptamine receptor 1B, HTR1B (h) (Homo sapiens, UniProt P28222); assay type: binding; conditions: IPP screening at 10 uM; control serotonin
[2] = biological target: Histamine H2 receptor, HRH2 (h) (Homo sapiens, UniProt P25021); test: IPP HRH2 binding (antagonist radioligand); conditions: control cimetidine
Histamine H2 receptor, HRH2 (h), sequence (P25021 whole entry): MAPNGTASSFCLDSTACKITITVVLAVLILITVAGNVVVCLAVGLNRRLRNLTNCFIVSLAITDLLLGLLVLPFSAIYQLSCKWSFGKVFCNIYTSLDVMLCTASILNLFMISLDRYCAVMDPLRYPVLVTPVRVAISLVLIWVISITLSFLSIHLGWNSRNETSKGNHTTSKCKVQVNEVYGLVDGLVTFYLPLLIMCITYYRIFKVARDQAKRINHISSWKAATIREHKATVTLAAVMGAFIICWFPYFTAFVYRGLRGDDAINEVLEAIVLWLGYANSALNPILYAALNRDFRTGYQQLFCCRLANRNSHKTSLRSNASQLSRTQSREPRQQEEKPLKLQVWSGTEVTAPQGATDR

[3] = biological target: Prostaglandin G/H synthase 1, PTGS1(h) (Homo sapiens, UniProt P23219); test: IPP PTGS1 enzymatic activity; assay type: biochemical; conditions: control Diclofenac
Prostaglandin G/H synthase 1, PTGS1(h), sequence (P23219 24-599): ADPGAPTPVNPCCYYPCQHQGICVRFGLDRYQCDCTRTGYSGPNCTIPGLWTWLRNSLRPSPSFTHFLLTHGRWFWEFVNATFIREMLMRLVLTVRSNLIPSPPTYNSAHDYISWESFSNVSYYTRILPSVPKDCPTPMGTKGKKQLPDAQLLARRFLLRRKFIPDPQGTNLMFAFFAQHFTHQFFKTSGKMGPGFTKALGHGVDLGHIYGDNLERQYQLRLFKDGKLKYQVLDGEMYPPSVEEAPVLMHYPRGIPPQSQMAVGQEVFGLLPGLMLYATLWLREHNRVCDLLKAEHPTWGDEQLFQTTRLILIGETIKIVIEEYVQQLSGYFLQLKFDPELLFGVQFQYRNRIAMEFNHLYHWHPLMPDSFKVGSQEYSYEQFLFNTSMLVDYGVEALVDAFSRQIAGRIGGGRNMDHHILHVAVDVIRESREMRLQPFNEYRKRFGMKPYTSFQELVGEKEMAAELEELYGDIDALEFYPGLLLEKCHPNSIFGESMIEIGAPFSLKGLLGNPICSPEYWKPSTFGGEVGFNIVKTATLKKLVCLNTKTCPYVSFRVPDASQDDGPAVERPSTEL

[4] = biological target: Cannabinoid receptor 1, CNR1 (h) (Homo sapiens, UniProt P21554); assay type: binding; conditions: control CP 55940
Cannabinoid receptor 1, CNR1 (h), sequence (P21554 whole entry): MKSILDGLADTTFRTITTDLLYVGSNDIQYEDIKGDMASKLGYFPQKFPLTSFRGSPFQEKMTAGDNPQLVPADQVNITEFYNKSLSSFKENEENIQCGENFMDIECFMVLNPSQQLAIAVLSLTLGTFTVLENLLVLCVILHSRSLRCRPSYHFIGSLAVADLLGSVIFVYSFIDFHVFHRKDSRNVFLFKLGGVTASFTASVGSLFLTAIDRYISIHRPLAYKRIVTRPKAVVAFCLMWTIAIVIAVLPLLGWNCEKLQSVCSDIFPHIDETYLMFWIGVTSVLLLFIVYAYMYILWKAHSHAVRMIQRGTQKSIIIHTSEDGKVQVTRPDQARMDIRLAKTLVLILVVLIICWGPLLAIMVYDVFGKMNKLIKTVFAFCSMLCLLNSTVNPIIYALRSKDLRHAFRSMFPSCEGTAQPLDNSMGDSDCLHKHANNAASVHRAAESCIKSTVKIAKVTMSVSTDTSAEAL

[5] = biological target: Cannabinoid receptor 2, CNR2 (h) (Homo sapiens, UniProt P34972); assay type: binding; conditions: IPP screening at 10 uM; control WIN 55212-2
Cannabinoid receptor 2, CNR2 (h), sequence (P34972 whole entry): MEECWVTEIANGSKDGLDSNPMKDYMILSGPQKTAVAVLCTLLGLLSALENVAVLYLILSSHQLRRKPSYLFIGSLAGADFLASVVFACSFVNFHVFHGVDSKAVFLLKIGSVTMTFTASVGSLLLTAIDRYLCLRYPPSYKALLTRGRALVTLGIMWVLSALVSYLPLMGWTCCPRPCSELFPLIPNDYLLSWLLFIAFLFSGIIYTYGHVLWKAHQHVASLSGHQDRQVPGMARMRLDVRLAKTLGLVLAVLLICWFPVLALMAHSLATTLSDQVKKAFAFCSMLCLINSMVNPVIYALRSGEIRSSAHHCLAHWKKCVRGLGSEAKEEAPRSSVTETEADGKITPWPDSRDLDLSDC

[6] = biological target: 5-hydroxytryptamine receptor 2A, HTR2A (h) (Homo sapiens, UniProt P28223); assay type: binding
5-hydroxytryptamine receptor 2A, HTR2A (h), sequence (P28223 whole entry): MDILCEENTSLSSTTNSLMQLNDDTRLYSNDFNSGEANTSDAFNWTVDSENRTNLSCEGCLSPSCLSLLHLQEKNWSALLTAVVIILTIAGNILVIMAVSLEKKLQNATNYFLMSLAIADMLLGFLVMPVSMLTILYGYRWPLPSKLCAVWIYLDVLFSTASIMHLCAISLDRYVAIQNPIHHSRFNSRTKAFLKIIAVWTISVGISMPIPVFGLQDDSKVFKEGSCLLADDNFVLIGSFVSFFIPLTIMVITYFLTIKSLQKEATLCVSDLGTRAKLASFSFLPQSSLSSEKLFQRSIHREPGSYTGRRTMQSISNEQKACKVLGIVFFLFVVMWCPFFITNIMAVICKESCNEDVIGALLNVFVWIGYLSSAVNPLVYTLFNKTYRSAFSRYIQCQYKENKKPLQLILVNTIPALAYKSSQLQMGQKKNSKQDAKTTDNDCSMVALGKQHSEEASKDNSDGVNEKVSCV

[7] = biological target: Tyrosine-protein kinase Lck, LCK (h) (Homo sapiens, UniProt P06239); test: IPP LCK enzymatic activity; assay type: biochemical; conditions: IPP screening at 10 uM; control staurosporine
Tyrosine-protein kinase Lck, LCK (h), sequence (P06239 whole entry): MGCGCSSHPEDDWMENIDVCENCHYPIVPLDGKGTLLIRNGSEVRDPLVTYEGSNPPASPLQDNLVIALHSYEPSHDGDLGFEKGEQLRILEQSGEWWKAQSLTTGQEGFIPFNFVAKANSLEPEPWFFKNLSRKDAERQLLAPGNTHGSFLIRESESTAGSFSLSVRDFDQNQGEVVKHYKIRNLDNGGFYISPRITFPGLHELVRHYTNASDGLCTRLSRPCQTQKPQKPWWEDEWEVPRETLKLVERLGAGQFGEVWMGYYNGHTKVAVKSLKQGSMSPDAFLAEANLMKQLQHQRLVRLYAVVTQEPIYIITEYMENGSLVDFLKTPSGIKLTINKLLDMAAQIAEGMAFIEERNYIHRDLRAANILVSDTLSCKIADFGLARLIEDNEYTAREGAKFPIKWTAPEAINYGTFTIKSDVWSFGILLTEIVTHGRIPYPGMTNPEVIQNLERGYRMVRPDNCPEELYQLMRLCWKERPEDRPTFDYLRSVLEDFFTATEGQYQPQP

[8] = test system: Thyroid hormone receptor alpha, THRA (h); test: IPP THRA coactivator recruitment (agonist); assay type: biochemical, human
HepG2 cells = test: Cell stress panel (CSP), 24 h, 8 concentrations, BIFROST global PoD; assay type: cell-based
Description: Compounds were tested using the previously developed cell stress panel ([Hatherell et al. 2020]) and the expanded biomarker panel outlined in Middleton et al. HepG2 cells were treated with all compounds for 24 h across 8 concentrations prior to biomarker analysis. The same plate layout and number of replicates (3 biological and 2 technical) were used as previously for each assay within the panel.

HepaRG cells = test: High-throughput transcriptomics (HTTr, TempO-Seq), HepaRG, 24 h; assay type: cell-based, human; conditions: HepaRG; for pod_httr_bifrost PoD: HTTr BIFROST PoD; for podl_path_minbmd PoD: HTTr minimum pathway BMD(L)
Description: (§1) HepG2, HepaRG, and MCF7 cells were treated with each compound for 24 h across a dose range of 7 concentrations and lysed using TempO-Seq lysis buffer (BioSpyder Technologies, proprietary kit, see [Middleton et al. 2022] for method details). Sequencing was performed using TempO-Seq (BioClavis) version 2 of the human whole transcriptome panel and analyzed as described previously in Middleton et al.

MCF7 cells = test: High-throughput transcriptomics (HTTr, TempO-Seq), MCF7, 24 h; assay type: cell-based, human; conditions: MCF-7; for pod_httr_bifrost PoD: HTTr BIFROST PoD; for podl_path_minbmd PoD: HTTr minimum pathway BMD(L)
Description: as §1

[9] = biological target: T1, Endothelin-1 receptor, EDNRA (h) (Homo sapiens, UniProt P25101); conditions: control endothelin-1
T1 sequence (P25101 21-427): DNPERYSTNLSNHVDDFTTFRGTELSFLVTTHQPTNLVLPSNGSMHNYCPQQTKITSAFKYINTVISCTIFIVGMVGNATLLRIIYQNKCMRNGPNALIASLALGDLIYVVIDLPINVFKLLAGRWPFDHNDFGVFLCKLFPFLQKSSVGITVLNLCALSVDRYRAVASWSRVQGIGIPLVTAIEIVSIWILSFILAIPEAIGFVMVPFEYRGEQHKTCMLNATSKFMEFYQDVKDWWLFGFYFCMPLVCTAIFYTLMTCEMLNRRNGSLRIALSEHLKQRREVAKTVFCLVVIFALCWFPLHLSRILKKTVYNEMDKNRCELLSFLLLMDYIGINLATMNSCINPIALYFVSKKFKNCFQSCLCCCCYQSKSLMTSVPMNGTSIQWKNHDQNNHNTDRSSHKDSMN

[10] = biological target: T2, Alpha-1A adrenergic receptor, ADRA1A (h) (Homo sapiens, UniProt P35348); conditions: control WB 4101
T2 sequence (P35348 1-466): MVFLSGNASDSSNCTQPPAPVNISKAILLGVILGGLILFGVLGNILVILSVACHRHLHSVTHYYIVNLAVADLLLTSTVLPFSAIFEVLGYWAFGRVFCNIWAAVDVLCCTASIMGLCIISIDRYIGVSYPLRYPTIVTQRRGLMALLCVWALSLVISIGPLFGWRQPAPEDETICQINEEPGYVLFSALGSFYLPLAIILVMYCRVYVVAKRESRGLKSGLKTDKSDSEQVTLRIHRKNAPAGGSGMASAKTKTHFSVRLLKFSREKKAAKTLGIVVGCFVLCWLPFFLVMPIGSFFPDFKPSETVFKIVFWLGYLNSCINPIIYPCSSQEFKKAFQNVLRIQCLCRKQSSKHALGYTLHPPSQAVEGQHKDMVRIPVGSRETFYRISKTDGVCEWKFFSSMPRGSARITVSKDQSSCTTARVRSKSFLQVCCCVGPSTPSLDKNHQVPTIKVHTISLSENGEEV

[11] = biological target: Sodium-dependent dopamine transporter, SLC6A3 (h) (Homo sapiens, UniProt Q01959); conditions: control BTCP
Sodium-dependent dopamine transporter, SLC6A3 (h), sequence (Q01959 whole entry): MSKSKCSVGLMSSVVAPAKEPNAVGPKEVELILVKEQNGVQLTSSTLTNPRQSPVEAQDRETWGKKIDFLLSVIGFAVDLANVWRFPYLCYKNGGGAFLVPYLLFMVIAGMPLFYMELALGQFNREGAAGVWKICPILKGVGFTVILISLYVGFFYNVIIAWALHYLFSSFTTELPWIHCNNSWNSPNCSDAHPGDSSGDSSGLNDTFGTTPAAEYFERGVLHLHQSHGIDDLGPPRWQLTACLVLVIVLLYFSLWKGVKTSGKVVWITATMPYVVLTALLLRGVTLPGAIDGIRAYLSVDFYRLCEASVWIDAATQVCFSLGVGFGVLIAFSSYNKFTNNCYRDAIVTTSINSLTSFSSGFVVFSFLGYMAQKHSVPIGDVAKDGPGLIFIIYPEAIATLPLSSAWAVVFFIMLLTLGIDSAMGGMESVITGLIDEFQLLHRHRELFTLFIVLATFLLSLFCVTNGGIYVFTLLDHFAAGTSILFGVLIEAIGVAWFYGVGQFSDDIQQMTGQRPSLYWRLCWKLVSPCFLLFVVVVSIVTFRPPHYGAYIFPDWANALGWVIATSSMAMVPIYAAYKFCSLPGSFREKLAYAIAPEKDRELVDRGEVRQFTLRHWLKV

[12] = biological target: Sodium-dependent noradrenaline transporter, SLC6A2 (h) (Homo sapiens, UniProt P23975); conditions: ligand/control protriptyline
Sodium-dependent noradrenaline transporter, SLC6A2 (h), sequence (P23975 whole entry): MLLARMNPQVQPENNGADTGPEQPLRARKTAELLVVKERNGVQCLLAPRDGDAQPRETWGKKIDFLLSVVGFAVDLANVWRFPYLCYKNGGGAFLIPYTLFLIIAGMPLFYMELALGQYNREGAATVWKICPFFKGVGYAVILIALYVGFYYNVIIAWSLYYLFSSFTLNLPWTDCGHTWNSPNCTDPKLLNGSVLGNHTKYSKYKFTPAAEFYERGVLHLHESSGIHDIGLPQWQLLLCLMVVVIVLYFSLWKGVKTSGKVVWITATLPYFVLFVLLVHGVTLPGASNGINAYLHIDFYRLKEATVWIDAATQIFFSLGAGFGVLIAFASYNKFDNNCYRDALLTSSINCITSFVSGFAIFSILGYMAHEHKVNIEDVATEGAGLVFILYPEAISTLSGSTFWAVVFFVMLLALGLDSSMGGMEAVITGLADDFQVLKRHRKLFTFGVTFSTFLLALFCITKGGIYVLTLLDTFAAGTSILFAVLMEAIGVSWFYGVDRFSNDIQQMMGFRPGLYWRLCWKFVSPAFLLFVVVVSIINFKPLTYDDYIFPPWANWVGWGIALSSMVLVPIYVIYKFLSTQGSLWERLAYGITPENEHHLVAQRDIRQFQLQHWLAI

[13] = biological target: T3, Peroxisome proliferator-activated receptor alpha, PPARA (h) (Homo sapiens, UniProt Q07869); test: IPP PPARA coactivator recruitment (agonist); assay type: biochemical; conditions: 10 uM, GW 7647 for control
T3 sequence (Q07869 1-468): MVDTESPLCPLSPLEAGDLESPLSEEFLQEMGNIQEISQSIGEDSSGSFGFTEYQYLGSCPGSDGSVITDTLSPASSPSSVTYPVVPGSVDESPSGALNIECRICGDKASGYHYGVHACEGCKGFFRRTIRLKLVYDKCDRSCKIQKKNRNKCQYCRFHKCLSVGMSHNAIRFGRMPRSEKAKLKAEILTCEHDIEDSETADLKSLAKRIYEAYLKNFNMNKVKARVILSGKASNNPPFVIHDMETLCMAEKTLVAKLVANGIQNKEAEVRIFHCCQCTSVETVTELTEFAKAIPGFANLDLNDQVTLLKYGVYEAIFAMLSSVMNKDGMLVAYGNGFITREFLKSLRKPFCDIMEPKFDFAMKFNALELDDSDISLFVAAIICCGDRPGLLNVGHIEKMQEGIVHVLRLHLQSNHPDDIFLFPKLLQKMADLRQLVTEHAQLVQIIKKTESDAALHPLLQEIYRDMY

[14] = IPP screening at 10 uM, control (±)DOI

5-hydroxytryptamine receptor 1B, HTR1B (h), sequence (P28222 whole entry): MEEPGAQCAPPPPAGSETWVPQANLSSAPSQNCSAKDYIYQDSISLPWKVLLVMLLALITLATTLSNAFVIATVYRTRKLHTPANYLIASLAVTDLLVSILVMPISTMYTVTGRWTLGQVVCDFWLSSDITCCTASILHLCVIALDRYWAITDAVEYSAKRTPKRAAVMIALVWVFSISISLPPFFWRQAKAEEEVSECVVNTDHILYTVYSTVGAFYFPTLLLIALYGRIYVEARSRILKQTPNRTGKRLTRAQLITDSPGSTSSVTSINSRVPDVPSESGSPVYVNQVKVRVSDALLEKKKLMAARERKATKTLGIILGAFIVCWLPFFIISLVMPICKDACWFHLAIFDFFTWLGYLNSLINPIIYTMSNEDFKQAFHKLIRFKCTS

| Molecule | Specific binding [1] [%] | Specific binding ([2]; IPP screening at 10 uM) [%] | Enzymatic activity ([3]; IPP screening at 10 uM) [%] | Specific binding ([4]; IPP screening at 10 uM) [%] | Specific binding [5] [%] | Specific binding [6, 14] [%] | Enzymatic activity [7] [%] | IPP screening %, Coactivator recruitment ([8]; 10 uM, agonist, T3) [%] | pod_cell_stress PoD (HepG2 cells; HepG2, cell stress panel PoD) [µM] | pod_httr_bifrost PoD (HepaRG cells) [µM] | podl_path_minbmd PoD (HepaRG cells) [µM] | pod_httr_bifrost PoD (MCF7 cells) [µM] | podl_path_minbmd PoD (MCF7 cells) [µM] | Specific binding ([9]; IPP screening at 10 uM) [%] | Specific binding ([10]; IPP screening at 10 uM) [%] | Specific binding ([11]; IPP screening at 10 uM) [%] | IPP screening %, Specific binding ([12]; 10 uM) [%] | IPP screening %, Coactivator recruitment [13] [%] | further results |
| --- | --- | --- | --- | --- | --- | --- | --- | --- | --- | --- | --- | --- | --- | --- | --- | --- | --- | --- | --- |
| CCOP(=S)(OCC)Oc1nc(Cl)c(Cl)cc1Cl [Chlorpyrifos, O,O-Diethyl O-(3,5,6-trichloropyridin-2-yl) phosphorothioate] | -20.1 | -62.6 | 2.7 | 26.0 | 16.0 | 52.0 | -7.4 | 2.0 | 0.578 | 0.07063 | 1.957 | 0.08218 | 3.743 | 0.1 | 5.4 | 34.7 | 63.4 |  |  |
| CC(C)(C)c1ccc(CCOc2ncnc3ccccc23)cc1 [Fenazaquin, 4-[2-(4-tert-Butylphenyl)ethoxy]quinazoline] | -2.2 | -38.6 | -4.7 | 57.0 | 26.8 | 20.7 | 3.3 | -1.0 | 0.0001306 | 0.006087 | 0.07466 | 0.001313 | 0.3873 | 2.7 | 35.8 | 65.2 | 69.3 | 1.2 | Bioactivity Observations: cell stress panel (HepG2 cells): Mechanism of action is insect-specific. Cell stress panel PoD is extrapolated beyond lowest concentration for leading biomarkers which suggests the concentration range tested was not low enough. |
| CC1(C)O[C@@H]2[C@@H](CO[C@@]3(COS(N)(=O)=O)OC(C)(C)O[C@@H]23)O1 [Topiramate, [(3aS,5aR,8aR,8bS)-2,2,7,7-Tetramethyltetrahydro-2H,3aH,7H-bis[1,3]dioxolo[4,5-b:4',5'-d]pyran-3a-yl]methyl sulfamate (non-preferred name)] |  |  |  |  |  |  |  |  | 140.54 | 28.4144 | 48.7054 | 22.6252 | 512.687 |  |  |  |  |  | Specific binding ([2]; IPP screening at 100 uM): -13.7%; Enzymatic activity ([3]; IPP screening at 100 uM): -1.5%; Specific binding ([4]; IPP screening at 100 uM): 10.5%; Specific binding ([6]; IPP screening at 100 uM; control ±)DOI): 0.9%; IPP screening %, Coactivator recruitment ([8]; 100 uM, agonist, T3, * denotes assay interference (2-Amino-6-chloro-4-nitrophenol, HC Red 3)): 0.0%; Specific binding ([9]; IPP screening at 100 uM): 5.1%; Specific binding ([10]; IPP screening at 100 uM): 2.2%; Specific binding ([11]; IPP screening at 100 uM): 0.1%; IPP screening %, Specific binding ([12]; 100 uM): 5.7% |
| (4S,4aR,5S,5aR,6S,12aS)-4-(Dimethylamino)-3,5,6,10,12,12a-hexahydroxy-6-methyl-1,11-dioxo-1,4,4a,5,5a,6,11,12a-octahydrotetracene-2-carboxamide--hydrogen chloride (1/1) [Oxytetracycline hydrochloride] | -8.9 | -18.3 | -5.1 | 25.7 | 4.9 |  | -1.2 | 1.0 |  |  |  |  |  | -1.2 | 6.2 | -0.9 | -8.5 | -0.7 |  |
| mixture of 2- and 3-tert-butyl-4-methoxyphenol [Butylated Hydroxyanisole] | 0.6 | -2.5 | 46.1 | -27.5 | -1.2 | 74.3 | 14.6 |  |  |  |  |  |  | -10.4 | 20.2 | 20.6 | 13.9 | -0.3 | IPP screening %, Coactivator recruitment [8]: 3.0%; pod_cell_stress PoD (HepG2 cells): 32.7666 µM |
